From patent US10160705B2, “Class of HDAC inhibitors expands the renal progenitor cells population and improves the rate of recovery from acute kidney injury” (University of Pittsburgh—Of the Commonwealth System of …, priority 2011, dated 2018) come the findings set out here.

Data set [1] relates to human HDACs. Briefly: Fluorescence histone deacetylation assay with HeLa cell nuclear extract. The class given is biochemical. The protocol:
To evaluate this in vitro, the deacetylation of a fluorescent peptide substrate was measured in the presence of human HDACs.
In vitro HDAC activity assays were performed using a fluorescence HDAC assay kit (Active Motif) according to the manufacturer's instructions. For maintaining compound solubility at 5 mM, the final DMSO concentration in all assay wells was increased to 5%. Fluorescence was detected using an M5 Plate Reader ([…])

The test system of data set [2] is zebrafish embryos. Briefly: Phenotypic screen for edema and survival in zebrafish larvae at 72 hpf. The method in brief: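 Embryos (5/well in primary screen; 12–30 per group otherwise) exposed from 2 hpf in E3 medium with 0.5% DMSO, 10 μM in screen or stated concentrations, 28.5 °C for 70 h. At 72 hpf, edema scored by phenotype classification (dominant phenotype in ≥4/5 embryos in screen); survival vs 0 μM by two-tailed Fisher's exact test (p<0.05).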

Data set [3] relates to histone H4. Briefly: Histone H4 hyperacetylation Western blot in treated embryos. The following applies: 24 hpf embryos, 6 hours; 3 μM PTBA, 25 μM PBA, 200 nM TSA. The class given is in vivo, zebrafish. The protocol: It was next determined whether the HDACi function of PTBA was quantifiable in vivo. 24 hpf embryos were treated with 3 μM PTBA, 25 μM PBA, or 200 nM TSA for 6 hours. Protein extracts were prepared and immunoblotted with an anti-hyperacetylated histone H4 antibody. […] Furthermore, increasing the compound concentration caused a corresponding increase in hyperacetylation (FIG. 21).
SDS-PAGE and Western blotting were performed as described previously with some modifications (Noel, E. S. et al. Organ-specific requirements for Hdac1 in liver and pancreas formation. Dev Biol 322, 237-250, (2008)). Proteins were separated on 18% SDS-PAGE gels. Membranes were incubated at 4° C. overnight with 1:1000 anti-hyperacetylated histone H4 antibody (06-946, Millipore) or 1:1000 anti-α-tubulin antibody (Sigma-Aldrich) in PBT containing 5% nonfat milk.

Data set [4] concerns RA-responsive genes, cyp26a1 and cmlc2. Nature of the data set: In situ hybridization for RA-responsive genes cyp26a1 and cmlc2 in 18-somite embryos. The class given is in vivo, zebrafish. The following applies: 3 μM. The protocol: In situ hybridization and immunocytochemistry: In situ hybridization was performed as previously described with some modifications.142 Hybridization temperature was 65° C. Embryos were blocked in 2% blocking reagent (Roche) with 5% sheep serum in MAB (100 mM maleic acid and 150 mM NaCl [pH 7.5]). Whole-mount immunocytochemistry with 1:25 mouse anti-α6F antibody (Developmental Studies Hybridoma Bank) and 1:100 Cy3 secondary antibody (Jackson ImmunoResearch) was performed as described previously.108 Embryos were embedded in JB-4 for sectioning per the manufacturer's instructions (Polysciences), sectioned at 5 μm, and mounted with Cytoseal 60 (Richard-Allan Scientific).
HDACis are believed to lower the threshold of RA necessary to activate transcription. If PTBA treatment facilitates activation of the RA pathway, then expression of genes responsive to RA signaling should change. […] In a previous study, cmlc2 expression was assessed for RAdependent effects in 18-somite embryos (Keegan, B. R., Feldman, J. L., Begemann, G., Ingham, P. W. & Yelon, D. Retinoic acid signaling restricts the cardiac progenitor pool. Science 307, 247-249, (2005)), therefore embryos were collected at the 18-somite stage for continuity. […]

Where [5] appears, read: number of larvae (of 36), 3 μM from 2 hpf, scored at 72 hpf.

Turning to `O=C(O)CCCSc1ccccc1` [UPHD-00020, 4-(phenylthio)butanoic acid (PTBA)], the “HDAC activity elicited by 10 μg HeLa extract, percent of the control value” in data set [1] (5 mM compound) was determined as 30%. In data set [1] (millimolar concentrations), the “reduction of HDAC activity” value came to 70%. The “larvae with edemic phenotype / pericardial edema by 72 hpf” value in data set [2] (3 μM PTBA, 25 μM PBA, 200 nM TSA) is reported as 92%. Besides, in data set [2] (10 μM, larvae at 72 hpf), the “phenotype in initial chemical screen” value is reported as “pericardial edema”. Besides, in data set [2] (10 μM, n=90), the “survival to 72 hpf” value is “died before 72 hpf”. Besides, in data set [2] (setting [5]), the Dead came to 1, the “Edemic 1 (E1)” value is on record as 13, the “Edemic 2 (E2)” value is reported as 17 and the “Edemic 3 (E3)” value is 5. The “Wild-type (WT)” value in data set [2] (setting [5]) stood at 0. Moreover, the “histone H4 hyperacetylation” value in data set [3] is recorded as “Histone H4 hyperacetylation was observed”. Also, in data set [4], the “cmlc2 expression decreased, percent of treated embryos” value amounted to 100% and the “cyp26a1 expression increased, percent of treated embryos” value stood at 100%.
